Laboratory results from PubChem BioAssay AID1919 (The Scripps Research Institute Molecular Screening Center, 2009).
pIC50: −log10 of the molar value. Calls of active or inactive are those of the source.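 How the source made its calls: active means IC50 against the VIM-2 bacterial beta-lactamase enzyme at or below a set limit; inactive means IC50 above that set limit.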

Biological target: VIM-2 metallo-beta-lactamase (Pseudomonas aeruginosa) (UniProt Q932Y6)
Test: concentration-dependent VIM-2 enzyme inhibition – biochemical, epi-absorbance readout, selective inhibitors, dose response (AID 1919)
Details: purified VIM-2, nitrocefin hydrolysis, epi-absorbance fluorescence

Structure (SMILES) | IC50 | pIC50
Cc1cc(C(=O)OCC(=O)NC(=O)c2cccn2C)c2ccccc2n1 | > 59.6 µM (inactive) | 
CSC[C@H](NC(=O)COc1cc2c(c3oc(=O)c(C)c(C)c13)CCC(C)(C)O2)C(=O)O | inactive | 
O=C(CCN1C(=O)/C(=C/c2ccccc2F)SC1=S)NCCCn1ccnc1 |  | 5.19
Cc1cccc(C(=O)Nc2nnc(SCC(=O)NCc3ccco3)s2)c1 | > 59.6 µM (inactive) | 
CCCCn1c(-c2ccoc2C)n[nH]c1=S | inactive | 
O=P(O)(O)c1ccccc1OCc1ccccc1 |  | 5.61
CC(=O)c1ccc(-c2ccc(Cn3c(C)nc4cc(N)c(C)nc43)cc2)cc1 | > 59.6 µM (inactive) | 
CC(C)(C)C(=O)Nc1nnc(CSCc2ccccc2F)s1 |  | 5.30
COCC(C)NC(=O)c1cc2cccc([N+](=O)[O-])c2[nH]1 (stereo not drawn) | inactive | 
CCCCn1c(-c2sccc2C)n[nH]c1=S |  | 5.33
CCn1c(-c2nn(-c3ccccc3)ccc2=O)n[nH]c1=S | inactive | 
CCN(CC)C(=O)CSc1nc2ccc(NC(=O)CSc3nccn3C)cc2s1 | inactive | 
O=C(O)C(NC(=O)c1ccccc1)=C(Cl)Cl | inactive | 
S=c1[nH]nc(C2CC2)n1Cc1ccccc1 |  | 5.47
O=C(CSc1nnc(NC(=O)c2ccccc2)s1)NCc1ccco1 | > 59.6 µM (inactive) | 
Cc1cc(OCC(=O)N2CCC[C@@H]2C(=O)O)c2c(C)c(C)c(=O)oc2c1 | inactive | 
COc1ccc2[nH]c(C(=O)O)c(CCN3C(=O)c4ccc(C(=O)O)cc4C3=O)c2c1 |  | 5.84
CCOC(=O)N=S(N)(=O)c1ccccc1 (stereo not drawn) | inactive | 
O=C(c1ccco1)N1N=C(c2ccc(Cl)cc2)CC1c1ccco1 (stereo not drawn) |  | 5.14
Cc1c(C)c2ccc(OCC(=O)N3CCC[C@@H]3C(=O)O)c(C)c2oc1=O |  | 5.22
CCCCn1c(-c2nn(C)cc2Cl)n[nH]c1=S |  | 5.38
COc1ccccc1-n1c(-c2ccco2)n[nH]c1=S | inactive | 
CC(C)(C)C(=O)Nc1nnc(SCC(=O)NCc2cccs2)s1 |  | 5.58
O=c1c2ccccc2cnn1Cc1n[nH]c(=S)n1C1CC2CCC1C2 (stereo not drawn) | inactive | 
Cc1n[nH]c(C)c1CCCCOc1ccc([N+](=O)[O-])cc1 | inactive | 
S=c1[nH]nc(C2CC2)n1Cc1ccco1 |  | 5.03

Structure (SMILES) | IC50 | pIC50
O=C(CSc1nnc(NC(=O)c2c(F)cccc2F)s1)NCc1ccccc1 |  | 5.03
CCCC(=O)Nc1nnc(SCC(=O)NCc2cccs2)s1 | inactive | 
O=[N+]([O-])c1ccc(-c2ccccc2)c([As](=O)(O)O)c1 |  | 6.13
S=c1[nH]nc(-c2cccs2)n1C1CCCCC1 |  | 5.17
Cc1cccc(-n2c(C)n[nH]c2=S)c1C | > 59.6 µM (inactive) | 
Cc1cc(=O)oc2c3c(cc(OCC(=O)N4CCC[C@H]4C(=O)O)c12)OC(C)(C)CC3 | inactive | 
CC1CCCCC1n1c(-c2cccnc2)n[nH]c1=S (stereo not drawn) | inactive | 
COCC(=O)Nc1nnc(SCC(=O)NCc2cccs2)s1 |  | 5.01
S=c1[nH]nc(-c2ccccc2)n1Cc1ccccc1 | inactive | 
Cc1ccc(-c2n[nH]c(=S)n2-c2ccccc2)cc1 | > 59.6 µM (inactive) | 
Cc1ccc(-c2c(C(=O)O)c(C(=O)O)c3n2CSC3)cc1 |  | 5.00
CSc1nc(SCC(=O)O)c2c3c(sc2n1)COC(C)(C)C3 | inactive | 
O=C(O)C1Sc2[nH]c(=O)sc2C2c3cc(Cl)ccc3OC(=O)C12 (stereo not drawn) | > 59.6 µM (inactive) | 
O=C(CSc1nnc(NC(=O)C2CCCCC2)s1)NCc1ccco1 |  | 5.18
CCCCc1cc(=O)oc2c3c(cc(OCC(=O)N4CCC[C@H]4C(=O)O)c12)OC(C)(C)CC3 | inactive | 
COc1cc2c(cc1OC)C(C)N(C(=O)c1nccnc1C(=O)O)CC2 (stereo not drawn) | inactive | 
Cc1c(C)c2c(OCC(=O)N[C@@H](C)C(=O)O)cc3c(c2oc1=O)CCC(C)(C)O3 |  | 5.35
O=C(O)c1[nH]c2ccc(Cl)cc2c1CCN1C(=O)c2ccccc2C1=O |  | 5.89
Cc1cc(C)n(-c2nc(SCC(=O)O)c3c4c(sc3n2)COC(C)(C)C4)n1 | inactive | 
O=C(O)c1[nH]c2ccc(Br)cc2c1CCN1C(=O)c2cccc([N+](=O)[O-])c2C1=O |  | 5.70
O=C(CSc1nnc(NC(=O)c2cc(Br)ccc2Cl)s1)NCC1CCCO1 (stereo not drawn) | inactive | 
O=C1Nc2cc(C(=O)N3CCC(N4CCCCC4)CC3)ccc2S/C1=C\c1ccccc1 | inactive | 
Cc1nn(CCc2n[nH]c(=S)n2-c2cccc(Cl)c2)c(C)c1[N+](=O)[O-] | inactive | 
Cc1cc(=O)oc2c3c(cc(OCC(=O)N[C@@H](Cc4ccccc4)C(=O)O)c12)OC(C)(C)CC3 | inactive | 
O=Cc1c(NCc2ccc(Cl)cc2)c2ccccc2[nH]c1=O | inactive | 
O=C(CSc1nnc(NC(=O)C2CC2)s1)NCc1ccccc1Cl | inactive | 

Structure (SMILES) | IC50 | pIC50
O=C(O)c1ccccc1Sc1ncnc2sc3c(c12)CCC3 | inactive | 
O=C1Nc2cc(C(=O)NCCCN3CCOCC3)ccc2S/C1=C/c1ccccc1F | inactive | 
C=C(c1cccc2ccccc12)P(=O)(O)O |  | 5.17
S=c1[nH]nc(-c2ccco2)n1Cc1ccccc1 |  | 5.19
CCCc1cc(=O)oc2c3c(cc(OCC(=O)N[C@@H](C)C(=O)O)c12)OC(C)(C)CC3 | inactive | 
O=C(CSc1nnc(NC(=O)c2ccccc2[N+](=O)[O-])s1)NCc1ccco1 |  | 5.16
O=C(O)CC/C(=C\c1cc([N+](=O)[O-])ccc1Cl)c1nc2ccccc2s1 | inactive | 
C=C(C)Cn1c(-c2cccs2)n[nH]c1=S |  | 5.30
Fc1ccccc1-c1n[nH]c(=S)n1Cc1ccccc1 | inactive | 
Cn1c(-c2sccc2OCc2ccccc2)n[nH]c1=S |  | 5.26
S=c1[nH]nc(-c2ccco2)n1-c1cccc2ccccc12 | inactive | 
Cc1ccccc1C(=O)Nc1nnc(SCC(=O)NCc2ccco2)s1 |  | 5.52
COc1cccc(-n2c(CNC(=O)OC(C)(C)C)n[nH]c2=S)c1 | inactive | 
COc1ccc(-c2n[nH]c(=S)n2-c2ccc3c(c2)OCCO3)cc1OC | inactive | 
Cc1cc(OCc2cc(C(=O)O)oc2C)c2c3c(c(=O)oc2c1)CCCC3 |  | 5.83
O=C(CSc1nnc(NC(=O)c2cccc(F)c2)s1)NCc1ccco1 | > 59.6 µM (inactive) | 
Cc1ccc(S(=O)(=O)n2[nH]c(=O)cc2NC(=O)c2cccs2)cc1 |  | 6.34
CC(C)Cn1c(-c2ccco2)n[nH]c1=S | inactive | 
CC1CCCC(C)N1C(=O)CSc1nnc(NC(=O)c2cccs2)s1 (stereo not drawn) | inactive | 
S=c1[nH]nc(Cn2c(-c3ccccn3)nc3ccccc32)n1-c1ccc2c(c1)OCCO2 | inactive | 
CC(C)(C)c1ccc(-c2n[nH]c(=S)n2CCCN2CCOCC2)cc1 | inactive | 
CCCn1c(C(C)C)n[nH]c1=S | inactive | 
O=c1[nH]c2c(s1)C(c1cccnc1)C1C3CCC(C3)C1S2 (stereo not drawn) |  | 7.26
CCCc1cc(=O)oc2c3c(cc(OCC(=O)N4CCC[C@H]4C(=O)O)c12)OC(C)(C)CC3 |  | 5.18
O=C(CSc1nnc(NC(=O)c2ccccc2F)s1)NCc1ccc(F)cc1 | inactive | 
CCc1cc(=O)oc2c(C)c(OCC(=O)N3CCC[C@@H]3C(=O)O)ccc12 | inactive | 

Structure (SMILES) | IC50 | pIC50
CC(C)(C)c1ccc(COc2ccsc2C(=O)O)cc1 | inactive | 
NC(=O)SCC(=O)Nc1ccccc1C(=O)O | inactive | 
Cn1ccnc1SCC(=O)Nc1ccc2nc(SCC(=O)NC3CC3)sc2c1 | inactive | 
Cc1c(Cl)c(-c2n[nH]c(=S)n2-c2ccc(F)cc2)nn1C | inactive | 
CCCCn1c(-c2nn(C)c(C)c2Cl)n[nH]c1=S |  | 5.27
Cc1ccc(-n2c(-c3nn(C)c(C)c3Cl)n[nH]c2=S)cc1 | inactive | 
Cc1c(OCC(=O)N2CCC[C@@H]2C(=O)O)ccc2c3c(c(=O)oc12)CCC3 | inactive | 
CCOC(=O)c1[nH]c(C(=O)O)c(CCC(=O)OC)c1C | inactive | 
C=CCn1c(C2CC2)n[nH]c1=S | inactive | 
COc1ccc(-c2cc(C(F)(F)F)nc(N3CCN(C)CC3)n2)cc1 | > 59.6 µM (inactive) | 
O=c1[nH]c(SCc2n[nH]c(=S)n2-c2ccccc2)nc2sc3c(c12)CCC3 | > 59.6 µM (inactive) | 
COc1ccccc1-c1n[nH]c(=S)n1Cc1ccco1 | inactive | 
O=C(O)c1ccccc1C(=O)c1cccc2ccccc12 | inactive | 
O=C(O)c1c(C(=O)O)c(-c2ccc(Br)cc2)n2c1CSC2 |  | 5.32
O=C(O)Cn1cccc1C(=O)c1ccccc1 | inactive | 
S=c1[nH]nc(-c2cccs2)n1Cc1ccccc1 |  | 5.39
S=c1[nH]nc(-c2ccccc2)n1CC1CCCO1 (stereo not drawn) | inactive | 
S=c1[nH]nc(-c2ccccc2)n1C1C=CCCC1 (stereo not drawn) | inactive | 
Cc1cccc(C2c3[nH]c4ccccc4c3CCN2C(=O)c2cc(CC(C)C)[nH]c(=O)n2)n1 (stereo not drawn) |  | 5.10
CC1=C(C(=O)O)N2C(=O)C(NC(=O)c3nn(C)cc3[N+](=O)[O-])C2SC1 (stereo not drawn) | inactive | 
COc1ccccc1C(=O)Nc1nnc(SCC(=O)NCc2ccco2)s1 |  | 5.19
O=P(O)(O)c1ccccc1OCCCCCOc1ccccc1P(=O)(O)O |  | 5.62
S=c1[nH]nc(-c2ccc3ccccc3n2)n1-c1ccc2c(c1)OCCO2 | inactive | 
Cc1c(C)c2c(OCC(=O)N3CCC[C@H]3C(=O)O)cc3c(c2oc1=O)CCC(C)(C)O3 |  | 5.76
CC(C)(C)CC(=O)Nc1nnc(SCC(=O)NCc2cccs2)s1 | inactive | 
